This is an account of results in patent US20110092469A1, “Quinone derivative 2,3-dimethoxy-5-methyl-6-(10-hydroxydecyl)-1,4-benzoquinone for the treatment of respiratory illness in muscular dystrophy” (SANTHERA PHARMACEUTICALS (SCHWEIZ) AG, priority 2008, published 2011).

SMILES strings stand for the structures.

This experiment relates to Duchenne Muscular Dystrophy (DMD) patients. Briefly: Double-blind, placebo-controlled, randomised clinical trial: pulmonary function testing in DMD patients. Type of experiment: in vivo, human. The protocol: Efficacy of idebenone on respiratory parameters in Duchenne Muscular Dystrophy (DMD) patients was assessed in a double-blind, placebo-controlled, randomised parallel group, clinical trial conducted in one singe clinical center. DMD patients at age 8 to 16 years were treated with idebenone or placebo over a period of 52 weeks. After written informed consent was obtained from the patient and the patient's parent/legal guardian, patients who met the protocol eligibility criteria were enrolled at the study centre and randomised to daily treatment of idebenone (150 mg, 3× daily; total daily dose of 450 mg) or placebo (3× daily). Efficacy was assessed at baseline and at weeks 26 and 52.
A total of 21 patients were enrolled, 13 patients were randomised to treatment with idebenone and 8 randomised to treatment with placebo.
Idebenone was formulated as a round biconvex shaped, film-coated orange tablet, with a 10 mm diameter, containing 150 mg of idebenone and Lactose Monohydrate, Microcrystalline Cellulose, Croscarmellose Sodium, Povidone (Plasdone® K25), Magnesium Stearate and Silicon Dioxide as excipients. The tablet is manufactured by a wet granulation process performed with a high-shear granulator, followed by compression on a rotary tabletting machine and film-coating of the cores in a perforated pan coater. The composition of the placebo is based on the composition of the 150 mg film-coated tablet. The drug substance and the excipients have been replaced by a mixture of lactose monohydrate and microcrystalline cellulose. The composition of the coating remained constant. Placebo tablets are manufactured by direct compression, followed by film-coating.
Both idebenone (150 mg) and matching placebo were administered as an oral tablet. Patients were to take 1 tablet, 3 times a day with meals, for 12 months (52 weeks).
Pulmonary function testing was performed by one clinical evaluator (physical therapist) with longstanding expertise in the assessment of children with neuromuscular diseases, using state of the art equipment and methods. Testing was done with the patient sitting, with a standardized order of testing. Lung volumes (FVC, FEV1) were measured using a handheld Koko spirometer (PDS Instrumentation, Louisville, USA).
Maximum inspiratory (MIP) and expiratory (MEP) pressures were measured using a Magnehelic® manometer (Dwyer Instrument, Michigan City Ind., USA) connected to a mouthpiece. Peak expiratory flow (PEF) measurements were performed using a portable peak flow meter (Mini-Wright peak flow meter, Clement Clarke International). For all parameters the highest values from three consecutive recordings were used in compliance with criteria published by the American Thoracic Society (ATS) (American Thoracic Society. Am J Respir Crit Care Med 1994; 152:1107-1136).
Pulmonary function testing included the following parameters: • Forced vital capacity (FVC) [L] • Forced vital capacity % predicted • Forced expiratory volume in 1 second (FEV1) [L] • FEV1 (% predicted) • Peak expiratory flow (PEF) [L/min] • Peak expiratory flow (% predicted) • Maximal Inspiratory Pressure (MIP) [cmH2O] • Maximal Inspiratory Pressure (% predicted)
For peak expiratory flow conversion from measured values (in Liter) to ‘% predicted’ was performed by the following equation: […]
“peak expiratory flow−422.8+5.288×height”[height in cm]
For maximal inspiratory pressure (MIP) conversion from measured values (in cm H2O) to ‘% predicted’ was performed by the following equation: […]
“MIP−27.020−(4.132×age)−(0.003×height×weight)”[age: years; height: cm body height; weight: kg]
Efficacy of idebenone was determined for the parameters listed above as changes between baseline and end of treatment (at week 52) and comparisons were made between idebenone treated and placebo treated subjects.

[1] abbreviates: DMD patients, idebenone 450 mg/day oral, N = 13, week 52, mean ± SD.

For `COC1=C(OC)C(=O)C(CCCCCCCCCCO)=C(C)C1=O` [Idebenone, 2,3-dimethoxy-5-methyl-6-(10-hydroxydecyl)-1,4-benzoquinone], the “FVC (forced vital capacity), Week 52” value (DMD patients 8-16 years, idebenone 150 mg 3x daily oral, N = 13, week 52 (end of treatment), mean ± SD) is given as 2.33 ± 0.67 L. Further, where the note is “DMD patients on idebenone, 52 week treatment period”, the “MIP expressed as percent of the predicted value, increase over 52 weeks” value is 4.8±13.0%. The “Peak expiratory flow at week 52 compared to baseline (in words)” value (DMD patients on idebenone, difference in change vs placebo statistically significant) is “higher at week 52 compared to baseline”. Moreover, the “Maximum inspiratory pressure (MIP) over the 52 week treatment period (in words)” value (DMD patients on idebenone, expressed as more negative number, change clearly different from placebo) is “increased”. Further, under “DMD patients, idebenone 450 mg/day oral, N = 13, change baseline to week 52, mean ± SD, more negative = larger inspiratory force, p 0.173 vs placebo (one-sided)”, the “MIP, Change Week 52-BL” value is reported as −7.33 ± 13.0 cmH2O. The “Peak expiratory flow, Change Week 52-BL” value (DMD patients, idebenone 450 mg/day oral, N = 13, change baseline to week 52, mean ± SD, p 0.039 vs placebo (one-sided)) is on record as 30.8 ± 54.4 L/min. For the same molecule, the “Peak expiratory flow % predicted, Change Week 52-BL” value (DMD patients, idebenone 450 mg/day oral, N = 13, change baseline to week 52, mean ± SD, p 0.042 vs placebo (one-sided)) is reported as 2.8 ± 13.8 % predicted. In addition, the “MIP % predicted, Change Week 52-BL” value (DMD patients, idebenone 450 mg/day oral, N = 13, change baseline to week 52, mean ± SD, p 0.142 vs placebo (one-sided)) was 4.8 ± 13.0 % predicted. For the same molecule, under “DMD patients, idebenone 450 mg/day oral, N = 13, change baseline to week 52, mean ± SD, p 0.471 vs placebo (one-sided)”, the “FVC, Change Week 52-BL” value came to 0.14 ± 0.31 L. Also, the “FEV1, Change Week 52-BL” value (DMD patients, idebenone 450 mg/day oral, N = 13, change baseline to week 52, mean ± SD, p 0.484 vs placebo (one-sided)) worked out at 0.11 ± 0.37 L. The “FEV1 % predicted, Change Week 52-BL” value (DMD patients, idebenone 450 mg/day oral, N = 13, change baseline to week 52, mean ± SD, p 0.651 vs placebo (one-sided)) is given as −2.0 ± 9.2 % predicted. Further, under “DMD patients, idebenone 450 mg/day oral, N = 13, change baseline to week 52, mean ± SD, p 0.793 vs placebo (one-sided)”, the “FVC % predicted, Change Week 52-BL” value was −1.2 ± 6.4 % predicted. Also, under setting [1], the “FEV1 % predicted, Week 52” value is reported as 74.5 ± 23.88 % predicted; the “FEV1 (forced expiratory volume 1 second), Week 52” value came to 2.08 ± 0.71 L; the “FVC % predicted, Week 52” value is 75.3 ± 24.79 % predicted; the “MIP % predicted, Week 52” value is 44.1 ± 13.38 % predicted. For the same molecule, under setting [1], the “MIP (maximal inspiratory pressure), Week 52” value is reported as −47.3 ± 14.09 cmH2O; the “Peak expiratory flow % predicted, Week 52” value is reported as 76.9 ± 20.13 % predicted; the “Peak expiratory flow, Week 52” value is 292.3 ± 90.6 L/min. In addition, the “Changes in FVC, FVC % predicted, FEV1 and FEV1 % predicted versus placebo (in words)” value (DMD patients, idebenone treatment 52 weeks) is “not different from placebo treatment”.
